In PubChem BioAssay (NCI):
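Interpolation was linear, between the two tested concentrations surrounding the appropriate level; five concentrations were tested over 48 hours in 96-well plates. TGI: total growth inhibition.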

What was measured:
Test in all cases: NCI tumour cell line growth inhibition, 48 h
[1] = tested on: DMS 273 small cell lung
[2] = tested on: DMS 114 small cell lung
[3] = tested on: SNB-78 CNS
[4] = tested on: KM20L2 colon
[5] = tested on: XF 498 CNS
[6] = tested on: RXF-631 renal
[7] = tested on: P388/ADR leukemia
[8] = tested on: P388 leukemia
[9] = tested on: SN12K1 renal
[10] = tested on: T-47D breast
[11] = tested on: BT-549 breast
[12] = tested on: MDA-N

| SMILES | TGI [1] [µM] | TGI [2] [µM] | TGI [3] [µM] | TGI [4] [µM] | TGI [5] [µM] | TGI [6] [µM] | TGI [7] [µM] | TGI [8] [µM] | TGI [9] [µM] | TGI [10] [µM] | TGI [11] [µM] | TGI [12] [µM] |
| --- | --- | --- | --- | --- | --- | --- | --- | --- | --- | --- | --- | --- |
| COC(=O)C(Cc1nc2ccccc2[nH]c1=O)C(=O)C(=O)Nc1ccc([N+](=O)[O-])cc1[N+](=O)[O-] (centres undefined) | 47.5 | 35 | > 100 | 38.3 | 34.6 | 73.1 |  |  |  |  |  |  |
| Nc1ccn(C2OC(COC(=O)C34CC5CC(CC(C5)C3)C4)C(O)C2O)c(=O)n1 (centres undefined) | > 100 | > 100 | > 100 | > 100 |  |  | > 100 | > 100 | > 100 | > 100 | > 100 | > 100 |
| FC(F)(F)C1(Br)C(c2ccccc2)=C1c1ccccc1 | 36.3 | 31.4 | 96.6 | 36.3 | 30.7 | > 100 |  |  |  |  |  |  |
| CN(C)c1nc(=Nc2cccc(Cl)c2)ss1 | 29.9 | 25.8 | 34 | 35.5 | 32.4 | 26.8 |  |  |  |  |  |  |
| CCOC(=N)/C(=C1\OC(N)=C(c2ccc(Cl)cc2)C1=O)c1ccc(Cl)cc1 | 34.4 | 40.6 | > 100 | 37.1 | 23.6 | 80.4 |  |  |  |  |  |  |
